Measurements from patent US20210338779A1, “THERAPEUTIC USE OF GLUCAGON AND COMBINATION INCLUDING THE SAME” (HANMI PHARM. CO., LTD, priority 2018, published 2021).

Assays:
Assay type in all cases: in vivo, Mouse
[1] = system: Mice with high-fat-diet-induced obesity; experiment: Experimental Example 2: co-administration of long-acting glucagon derivative and oral diabetes drug in mice with high-fat-diet-induced obesity; details: 28 days; long-acting glucagon derivative 1.2 nmol/kg once every 2 days; Sitagliptin 49.2 mg/kg, Empagliflozin 12.3 mg/kg once a day; SAXENDA 50 nmol/kg twice a day
Procedure: (§1) Mice with high-fat-diet-induced obesity, which have been widely used as obesity animal models, were used for this experiment. The body weights of the mice were in the range of about 50 g to 55 g. During this experiment, mice were housed 7 mice per each group and were given ad libitum access to water. Lights were turned off between 6 P.M. and 6 A. M.
Test groups fed with high-fat diet include: Group 1: administered with an excipient not including long-acting glucagon (5 mL/kg, injection once every 2 days)-control (Vehicle), Group 2: administered with a GLP-1 analog obesity drug (SAXENDA®, 50 nmol/kg, injection twice a day), Group 3: administered with the long-acting glucagon derivative (1.2 nmol/kg, injection once every 2 days), Group 4: administered with a DPP-4 inhibitor (Sitagliptin, 49.2 mg/kg, injection once a day), Group 5: administered with an SGLT-2 inhibitor (Empagliflozin, 12.3 mg/kg, injection once a day), Group 6: co-administered with Sitagliptin (49.2 mg/kg, injection once a day) and the long-acting glucagon derivative (1.2 nmol/kg, injection once every 2 days), and Group 7: Empagliflozin (12.3 mg/kg, injection once a day) and the long-acting glucagon derivative (1.2 nmol/kg, injection once every 2 days). The long-acting glucagon derivative used in this experiment was the long-acting derivative according to Example 5.
(§2) The experiment was terminated on the 28th day, and changes in body weight of the mice in each group were measured at 2-day intervals during the progress of the experiment, and changes in blood glucose level were measured before administration and at the 1st, 4th, 7th, 10th, 13th, 16th, 19th, 22nd, 25th, and 28th days after administration. Upon termination of the experiment, the weight of fat and HOMA-IR were measured.
(§3) Statistical analysis was performed by comparing the excipient group (control) with the test groups by 1-way ANOVA.

[2] = system: Mice with high-fat-diet-induced obesity; experiment: Experimental Example 1: body weight, fat, HOMA-IR and blood glucose in mice with high-fat-diet-induced obesity; details: 28 days; long-acting glucagon derivative 1.2 nmol/kg once every 2 days; SAXENDA 50 nmol/kg twice a day; Sitagliptin 49.2 mg/kg once a day
Procedure: as §1
Test groups fed with high-fat diet include: Group 1: administered with an excipient not including long-acting glucagon (5 mL/kg, injection once every 2 days)-control (Vehicle), Group 2: administered with a GLP-1 analog obesity drug (SAXENDA®, 50 nmol/kg, injection twice a day), Group 3: administered with the long-acting glucagon derivative (1.2 nmol/kg, injection once every 2 days), and Group 4: administered with a DPP-4 inhibitor (Sitagliptin, 49.2 mg/kg, injection once a day).
as §2, §3

[3] = system: Mice with high-fat-diet-induced obesity; experiment: Experimental Example 3: long-acting glucagon derivative and GLP-1 analogs, alone and co-administered, in mice with high-fat-diet-induced obesity; details: 28 days; glucagon long-acting derivative 2.0 nmol/kg once every 2 days; SAXENDA 50 nmol/kg twice a day; OZEMPIC 20.5 nmol/kg, TRULICITY 2.7 nmol/kg once every 2 days
Procedure: as §1, with “Light was” for “Lights were”, “A.M. […]” for “A. M.”
The experiment was terminated on the 28th day, and changes in body weight of the mice in each group were measured at 2-day intervals during the progress of the experiment. Upon termination of the experiment, blood lipid levels, weights of fat, and blood glucose levels were measured. […]

| Compound | weight loss (change in body weight) [1] [%] | change in body weight compared to body weight before administration [2] [%] | weight loss compared to the body weight before administration [3] [%] |
| --- | --- | --- | --- |
| OC[C@H]1O[C@@H](c2ccc(Cl)c(Cc3ccc(O[C@H]4CCOC4)cc3)c2)[C@H](O)[C@@H](O)[C@@H]1O [Empagliflozin] | −10.4 | – | – |
| N[C@@H](CC(=O)N1CCn2c(nnc2C(F)(F)F)C1)Cc1cc(F)c(F)cc1F [Sitagliptin] | −0.1 | −0.1 | – |
| SAXENDA®: GLP-1 analog obesity drug (HAEGTFTSDVSSYLEGQAAKEFIAWLVRGRG; chains of the INN, looked up) | −16.3 | −16.3 | −18.10 |
| TRULICITY®: long-acting GLP-1 analog | – | – | −3.81 |
